In ChEMBL document CHEMBL1201862, “PubChem BioAssay data set” (2004):
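Growth conditions: 96-well plates. Treatment: test compound, 48 hours, 5 concentrations. Analysis: linear interpolation between bracketing concentrations; unreached endpoints set to highest concentration. Abbreviation: GI50, concentration required for 50% inhibition of growth.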 Calls of active or inactive are those of the source. No stated cut-off is given here; in the data, active = GI50 up to about 1.1 µM and inactive = higher.

What was measured:
Assay in all cases: NCI tumour cell line growth inhibition, 48 h
786-0 = tested on: 786-0
A498 = tested on: A498
A549 = tested on: A549
ACHN = tested on: ACHN
CAKI-1 = tested on: CAKI-1
CCRF-CEM = tested on: CCRF-CEM
COLO 205 = tested on: COLO 205
DLD-1 = tested on: DLD-1
DMS-114 = tested on: DMS-114
DMS-273 = tested on: DMS-273
EKVX = tested on: EKVX
HCC 2998 = tested on: HCC 2998
HCT-116 = tested on: HCT-116
HCT-15 = tested on: HCT-15
HL-60 = tested on: HL-60
HOP-62 = tested on: HOP-62
HOP-92 = tested on: HOP-92
HT-29 = tested on: HT-29
IGROV-1 = tested on: IGROV-1
K562 = tested on: K562
KM-20L2 = tested on: KM-20L2
KM12 = tested on: KM12
LOX IMVI = tested on: LOX IMVI
LXFL 529 = tested on: LXFL 529
M14 = tested on: M14
M19-MEL = tested on: M19-MEL
MOLT-4 = tested on: MOLT-4
Malme-3M = tested on: Malme-3M
NCI-H226 = tested on: NCI-H226
NCI-H23 = tested on: NCI-H23
NCI-H460 = tested on: NCI-H460
NCI-H522 = tested on: NCI-H522
OVCAR-3 = tested on: OVCAR-3
OVCAR-4 = tested on: OVCAR-4
OVCAR-5 = tested on: OVCAR-5
OVCAR-8 = tested on: OVCAR-8
RPMI-8226 = tested on: RPMI-8226
RXF 393 = tested on: RXF 393
SF-295 = tested on: SF-295
SF-539 = tested on: SF-539
SK-MEL-28 = tested on: SK-MEL-28
SK-MEL-2 = tested on: SK-MEL-2
SK-MEL-5 = tested on: SK-MEL-5
SK-OV-3 = tested on: SK-OV-3
SN12C = tested on: SN12C
SNB-19 = tested on: SNB-19
SNB-75 = tested on: SNB-75
SNB-78 = tested on: SNB-78
SR = tested on: SR
SW-620 = tested on: SW-620
TK-10 = tested on: TK-10
U-251 = tested on: U-251
UACC-257 = tested on: UACC-257
UACC-62 = tested on: UACC-62
UO-31 = tested on: UO-31
SF-268 = tested on: SF-268

`COc1ccc(C(=O)C2CCC(C(=O)O)C2)cc1` (stereo not drawn) was tested, and the GI50 (786-0) was > 100 µM (inactive), the GI50 (A498) was > 100 µM (inactive) and the GI50 (A549) was > 100 µM (inactive). The GI50 (ACHN) was > 100 µM (inactive), the GI50 (CAKI-1) was > 100 µM (inactive) and the GI50 (CCRF-CEM) was > 100 µM (inactive). For the same compound, the GI50 (COLO 205) was > 100 µM (inactive), the GI50 (DLD-1) was > 100 µM (inactive) and the GI50 (DMS-114) was > 100 µM (inactive). For the same compound, the GI50 (DMS-273) was > 100 µM (inactive), the GI50 (EKVX) was > 100 µM (inactive) and the GI50 (HCC 2998) was > 100 µM (inactive). For the same compound, the GI50 (HCT-116) was > 100 µM (inactive), the GI50 (HCT-15) was > 100 µM and the GI50 (HL-60) was > 100 µM (inactive). The GI50 (HOP-62) was > 100 µM (inactive), the GI50 (HOP-92) was > 100 µM (inactive) and the GI50 (HT-29) was > 100 µM (inactive). The GI50 (IGROV-1) was > 100 µM (inactive), the GI50 (K562) was > 100 µM (inactive) and the GI50 (KM-20L2) was > 100 µM (inactive). For the same compound, the GI50 (KM12) was > 100 µM (inactive), the GI50 (LOX IMVI) was > 100 µM (inactive) and the GI50 (LXFL 529) was > 100 µM (inactive). For the same compound, the GI50 (M14) was > 100 µM (inactive), the GI50 (M19-MEL) was > 100 µM (inactive) and the GI50 (MOLT-4) was > 100 µM (inactive). For the same compound, the GI50 (Malme-3M) was > 100 µM (inactive), the GI50 (NCI-H226) was > 100 µM (inactive) and the GI50 (NCI-H23) was > 100 µM (inactive). For the same compound, the GI50 (NCI-H460) was > 100 µM (inactive), the GI50 (NCI-H522) was > 100 µM (inactive) and the GI50 (OVCAR-3) was > 100 µM (inactive). For the same compound, the GI50 (OVCAR-4) was > 100 µM (inactive), the GI50 (OVCAR-5) was > 100 µM (inactive) and the GI50 (OVCAR-8) was > 100 µM (inactive). For the same compound, the GI50 (RPMI-8226) was > 100 µM (inactive), the GI50 (RXF 393) was > 100 µM (inactive) and the GI50 (SF-295) was > 100 µM (inactive). The GI50 (SF-539) was > 100 µM (inactive), the GI50 (SK-MEL-28) was > 100 µM (inactive) and the GI50 (SK-MEL-2) was > 100 µM (inactive). For the same compound, the GI50 (SK-MEL-5) was > 100 µM (inactive), the GI50 (SK-OV-3) was > 100 µM (inactive) and the GI50 (SN12C) was > 100 µM (inactive). For the same compound, the GI50 (SNB-19) was > 100 µM (inactive), the GI50 (SNB-75) was > 100 µM (inactive) and the GI50 (SNB-78) was > 100 µM (inactive). For the same compound, the GI50 (SR) was > 100 µM (inactive), the GI50 (SW-620) was > 100 µM (inactive) and the GI50 (TK-10) was > 100 µM (inactive). For the same compound, the GI50 (U-251) was > 100 µM (inactive), the GI50 (UACC-257) was > 100 µM (inactive) and the GI50 (UACC-62) was > 100 µM (inactive). The GI50 (UO-31) was > 100 µM (inactive).

For `COc1ccc(-c2cc(=O)c3c(OC)cccc3o2)c(OC)c1OC`, the GI50 (786-0) was > 100 µM (inactive), the GI50 (A498) was > 100 µM (inactive) and the GI50 (A549) was > 100 µM (inactive). For the same compound, the GI50 (ACHN) was > 100 µM (inactive), the GI50 (CAKI-1) was > 100 µM (inactive) and the GI50 (CCRF-CEM) was > 100 µM (inactive). The GI50 (COLO 205) was > 100 µM (inactive), the GI50 (DLD-1) was 95.1 µM (inactive) and the GI50 (DMS-114) was > 100 µM (inactive). The GI50 (DMS-273) was > 100 µM (inactive), the GI50 (HCC 2998) was > 100 µM (inactive) and the GI50 (HCT-116) was > 100 µM (inactive). The GI50 (HCT-15) was > 100 µM, the GI50 (HL-60) was 63.1 µM (inactive) and the GI50 (HOP-62) was > 100 µM (inactive). The GI50 (HOP-92) was 39.9 µM (inactive), the GI50 (HT-29) was > 100 µM (inactive) and the GI50 (IGROV-1) was > 100 µM (inactive). The GI50 (K562) was 68.5 µM (inactive), the GI50 (KM-20L2) was > 100 µM (inactive) and the GI50 (KM12) was > 100 µM (inactive). For the same compound, the GI50 (LOX IMVI) was > 100 µM (inactive), the GI50 (LXFL 529) was 82.2 µM (inactive) and the GI50 (M14) was > 100 µM (inactive). For the same compound, the GI50 (M19-MEL) was > 100 µM (inactive), the GI50 (MOLT-4) was 54.6 µM (inactive) and the GI50 (Malme-3M) was > 100 µM (inactive). For the same compound, the GI50 (NCI-H226) was > 100 µM (inactive), the GI50 (NCI-H23) was > 100 µM (inactive) and the GI50 (NCI-H460) was > 100 µM (inactive). The GI50 (NCI-H522) was > 100 µM (inactive), the GI50 (OVCAR-3) was > 100 µM (inactive) and the GI50 (OVCAR-4) was > 100 µM (inactive). For the same compound, the GI50 (OVCAR-5) was > 100 µM (inactive), the GI50 (OVCAR-8) was > 100 µM (inactive) and the GI50 (RPMI-8226) was 80.5 µM (inactive). For the same compound, the GI50 (RXF 393) was 39 µM (inactive), the GI50 (SF-268) was > 100 µM (inactive) and the GI50 (SF-295) was > 100 µM (inactive). For the same compound, the GI50 (SF-539) was > 100 µM (inactive), the GI50 (SK-MEL-28) was > 100 µM (inactive) and the GI50 (SK-MEL-2) was > 100 µM (inactive). For the same compound, the GI50 (SK-MEL-5) was 87.7 µM (inactive), the GI50 (SK-OV-3) was > 100 µM (inactive) and the GI50 (SN12C) was > 100 µM (inactive). For the same compound, the GI50 (SNB-75) was 19.8 µM (inactive), the GI50 (SNB-78) was > 100 µM (inactive) and the GI50 (SR) was 56.1 µM (inactive). The GI50 (SW-620) was > 100 µM (inactive), the GI50 (TK-10) was 82 µM (inactive) and the GI50 (U-251) was > 100 µM (inactive). The GI50 (UACC-257) was > 100 µM (inactive) and the GI50 (UACC-62) was > 100 µM (inactive).

For `O=C1CCCc2ccc([N+](=O)[O-])c(O)c21`, the GI50 (786-0) was 89.9 µM (inactive), the GI50 (A498) was 50.7 µM (inactive) and the GI50 (A549) was 96.2 µM (inactive). The GI50 (ACHN) was 48.9 µM (inactive), the GI50 (CAKI-1) was 37.9 µM (inactive) and the GI50 (CCRF-CEM) was > 100 µM (inactive). For the same compound, the GI50 (COLO 205) was > 100 µM (inactive), the GI50 (DLD-1) was > 100 µM (inactive) and the GI50 (DMS-114) was 66.1 µM (inactive). For the same compound, the GI50 (DMS-273) was > 100 µM (inactive), the GI50 (EKVX) was > 100 µM (inactive) and the GI50 (HCC 2998) was > 100 µM (inactive). For the same compound, the GI50 (HCT-116) was > 100 µM (inactive), the GI50 (HCT-15) was 72.9 µM and the GI50 (HL-60) was 92.5 µM (inactive). For the same compound, the GI50 (HOP-62) was > 100 µM (inactive), the GI50 (HOP-92) was 68.1 µM (inactive) and the GI50 (HT-29) was > 100 µM (inactive). The GI50 (IGROV-1) was 82.6 µM (inactive), the GI50 (K562) was > 100 µM (inactive) and the GI50 (KM-20L2) was > 100 µM (inactive). The GI50 (KM12) was > 100 µM (inactive), the GI50 (LOX IMVI) was > 100 µM (inactive) and the GI50 (LXFL 529) was > 100 µM (inactive). The GI50 (M14) was > 100 µM (inactive), the GI50 (M19-MEL) was > 100 µM (inactive) and the GI50 (MOLT-4) was > 100 µM (inactive). The GI50 (Malme-3M) was 34.4 µM (inactive), the GI50 (NCI-H226) was 40.8 µM (inactive) and the GI50 (NCI-H23) was > 100 µM (inactive). The GI50 (NCI-H460) was > 100 µM (inactive), the GI50 (NCI-H522) was 66.8 µM (inactive) and the GI50 (OVCAR-3) was > 100 µM (inactive). For the same compound, the GI50 (OVCAR-4) was > 100 µM (inactive), the GI50 (OVCAR-5) was 59.8 µM (inactive) and the GI50 (OVCAR-8) was > 100 µM (inactive). The GI50 (RXF 393) was 55.1 µM (inactive), the GI50 (SF-268) was 69.8 µM (inactive) and the GI50 (SF-295) was > 100 µM (inactive). For the same compound, the GI50 (SF-539) was > 100 µM (inactive), the GI50 (SK-MEL-28) was > 100 µM (inactive) and the GI50 (SK-MEL-2) was 39 µM (inactive). For the same compound, the GI50 (SK-MEL-5) was > 100 µM (inactive), the GI50 (SK-OV-3) was > 100 µM (inactive) and the GI50 (SN12C) was 65 µM (inactive). The GI50 (SNB-19) was 82.6 µM (inactive), the GI50 (SNB-75) was 45.6 µM (inactive) and the GI50 (SNB-78) was > 100 µM (inactive). The GI50 (SR) was 85.7 µM (inactive), the GI50 (SW-620) was > 100 µM (inactive) and the GI50 (TK-10) was 55.7 µM (inactive). For the same compound, the GI50 (U-251) was 59.3 µM (inactive), the GI50 (UACC-257) was > 100 µM (inactive) and the GI50 (UACC-62) was 54.6 µM (inactive). For the same compound, the GI50 (UO-31) was 34.8 µM (inactive).
